# Like-named read-outs stand apart in the source and are kept apart here.
# Experiments:
# [1] = test system: maximal electroshock-induced seizures; assay: Maximal electroshock-induced seizures (MES); type: in vivo, mice; settings: for ED50: Mus musculus, mice, tonic hindlimb extensor response, corneal electrodes 50 mA; for activity against maximal electroshock (MES): statement in words, refers to Table 3
# Protocol: Maximal Electroshock-induced Seizures
# Seizures were induced by application of current (50 mA, 60 pulses/sec, 0.8 sec pulse width, 1 sec duration, d.c.) through saline-coated corneal electrodes using a Ugo Basile ECT device (Model 7801). […] A tonic seizure was defined as a hindlimb extension in excess of 90 degrees from the plane of the body. Results were treated in a quantal manner.
# NR1A/NR2D NMDA receptor = NR1A/NR2D NMDA receptor (Rattus norvegicus, UniProt P35439+Q62645); assay: Electrophysiological assay, cloned NMDA receptor subunits expressed in Xenopus oocytes (1A/2D); type: cell-based; settings: read-out: Subunits (IC50 (μM)) 1A/2D, mean IC50, inhibition of NMDA-activated membrane current responses, glutamate 100 μM + glycine
# From the text: (§1) Electrophysiological Assays at NMDA Receptor Subunits
# (§2) cDNA clones encoding the NR1A, NR2A, NR2B, NR2C and NR2D rat NMDA receptor subtypes were provided by Dr. P. H. Seeburg (see, Moriyoshi et al., Nature (Lond.) 354:31-37 (1991); Kutsuwada et al., Nature (Lond.) 358:36-41 (1992) Monyer et al., Science (Washington, D.C.) 256:1217-1221 (1992); Ikeda et al., FEBS Lett. 313:34-38 (1992); Ishii et al., J. Biol. Chem. 268:2836-2843 (1993) for details of these clones or their mouse homologs). The clones were transformed into appropriate host bacteria and plasmid preparations were made with conventional DNA purification techniques. […]
# (§3) Electrical recordings were made using a conventional two-electrode voltage clamp (Dagan TEV-200) over periods ranging between 3-21 days following injection. […] Inhibitory potency of the novel antagonists was assessed on responses elicited by fixed concentrations of glutamate and glycine, by measuring reductions in current induced by progressively increasing concentrations of antagonist. […]
# (§4) in which Icontrol is the current evoked by agonists alone, pIC50=−log IC50, IC50 is the concentration of antagonist that produces half maximal inhibition, and n is the slope factor. […] For incomplete curves analysis by fitting was unreliable and IC50 values were calculated by simple regression over linear portions of the curves (Origin: Microcal Software).
# NR1A/NR2B NMDA receptor = NR1A/NR2B NMDA receptor (Rattus norvegicus, UniProt P35439+Q00960); assay: Electrophysiological assay, cloned NMDA receptor subunits expressed in Xenopus oocytes (1A/2B); type: cell-based
# From the text: as §1
# cDNA clones encoding the NR1A, NR2A, NR2B, NR2C and NR2D rat NMDA receptor subtypes were provided by Dr. P. H. Seeburg (see, Moriyoshi et al., Nature (Lond.) 354:31-37 (1991); Kutsuwada et al., Nature (Lond.) 358:36-41 (1992) Monyer et al., Science (Washington, D.C.) 256:1217-1221 (1992); Ikeda et al., FEBS Lett. 313:34-38 (1992); Ishii et al., J. Biol. Chem. 268:2836-2843 (1993) for details of these clones or their mouse homologs). The clones were transformed into appropriate host bacteria and plasmid preparations were made with conventional DNA purification techniques. A sample of each clone was linearized by restriction enzyme digestion and cRNA was synthesized with T3 RNA polymerase. The CRNA was diluted to 400 ng/μl and stored in 1 μl aliquots at −80° C. until injection.
# Mature female Xenopus laevis were anaesthetized (20-40 min) using 0.15% 3-aminobenzoic acid ethyl ester (MS-222) and 2-4 ovarian lobes were surgically removed. Oocytes at developmental stages IV-VI (Dumont, J. N., J. Morphol. 136:153-180 (1972)), were dissected from the ovary still surrounded by enveloping ovarian tissues. Follicle-enclosed oocytes were micro-injected with 1:1 mixtures of cRNA:NR1A+NR2A, 2B, 2C or 2D; injecting ˜2,5, or 20 ng of RNA encoding each receptor subunit. […]
# as §3, §4
# NR1A/NR2A NMDA receptor = NR1A/NR2A NMDA receptor (Rattus norvegicus, UniProt P35439+Q00959); assay: Electrophysiological assay, cloned NMDA receptor subunits expressed in Xenopus oocytes (1A/2A); type: cell-based
# From the text: as §1, §2, §3, §4
# NR1A/NR2C NMDA receptor = NR1A/NR2C NMDA receptor (Rattus norvegicus, UniProt P35439+Q00961); assay: Electrophysiological assay, cloned NMDA receptor subunits expressed in Xenopus oocytes (1A/2C); type: cell-based; settings: read-out: Subunits (IC50 (μM)) 1A/2C, mean IC50, inhibition of NMDA-activated membrane current responses, glutamate 100 μM + glycine
# From the text: as §1, §2, §3, §4
# [2] = mean IC50, inhibition of NMDA-activated membrane current responses, glutamate 100 μM + glycine, read-out: Subunits (IC50 (μM)) 1A/2B
# NR1A/NR2B NMDA receptor, sequence (Q00960 27-1482, other chains not shown): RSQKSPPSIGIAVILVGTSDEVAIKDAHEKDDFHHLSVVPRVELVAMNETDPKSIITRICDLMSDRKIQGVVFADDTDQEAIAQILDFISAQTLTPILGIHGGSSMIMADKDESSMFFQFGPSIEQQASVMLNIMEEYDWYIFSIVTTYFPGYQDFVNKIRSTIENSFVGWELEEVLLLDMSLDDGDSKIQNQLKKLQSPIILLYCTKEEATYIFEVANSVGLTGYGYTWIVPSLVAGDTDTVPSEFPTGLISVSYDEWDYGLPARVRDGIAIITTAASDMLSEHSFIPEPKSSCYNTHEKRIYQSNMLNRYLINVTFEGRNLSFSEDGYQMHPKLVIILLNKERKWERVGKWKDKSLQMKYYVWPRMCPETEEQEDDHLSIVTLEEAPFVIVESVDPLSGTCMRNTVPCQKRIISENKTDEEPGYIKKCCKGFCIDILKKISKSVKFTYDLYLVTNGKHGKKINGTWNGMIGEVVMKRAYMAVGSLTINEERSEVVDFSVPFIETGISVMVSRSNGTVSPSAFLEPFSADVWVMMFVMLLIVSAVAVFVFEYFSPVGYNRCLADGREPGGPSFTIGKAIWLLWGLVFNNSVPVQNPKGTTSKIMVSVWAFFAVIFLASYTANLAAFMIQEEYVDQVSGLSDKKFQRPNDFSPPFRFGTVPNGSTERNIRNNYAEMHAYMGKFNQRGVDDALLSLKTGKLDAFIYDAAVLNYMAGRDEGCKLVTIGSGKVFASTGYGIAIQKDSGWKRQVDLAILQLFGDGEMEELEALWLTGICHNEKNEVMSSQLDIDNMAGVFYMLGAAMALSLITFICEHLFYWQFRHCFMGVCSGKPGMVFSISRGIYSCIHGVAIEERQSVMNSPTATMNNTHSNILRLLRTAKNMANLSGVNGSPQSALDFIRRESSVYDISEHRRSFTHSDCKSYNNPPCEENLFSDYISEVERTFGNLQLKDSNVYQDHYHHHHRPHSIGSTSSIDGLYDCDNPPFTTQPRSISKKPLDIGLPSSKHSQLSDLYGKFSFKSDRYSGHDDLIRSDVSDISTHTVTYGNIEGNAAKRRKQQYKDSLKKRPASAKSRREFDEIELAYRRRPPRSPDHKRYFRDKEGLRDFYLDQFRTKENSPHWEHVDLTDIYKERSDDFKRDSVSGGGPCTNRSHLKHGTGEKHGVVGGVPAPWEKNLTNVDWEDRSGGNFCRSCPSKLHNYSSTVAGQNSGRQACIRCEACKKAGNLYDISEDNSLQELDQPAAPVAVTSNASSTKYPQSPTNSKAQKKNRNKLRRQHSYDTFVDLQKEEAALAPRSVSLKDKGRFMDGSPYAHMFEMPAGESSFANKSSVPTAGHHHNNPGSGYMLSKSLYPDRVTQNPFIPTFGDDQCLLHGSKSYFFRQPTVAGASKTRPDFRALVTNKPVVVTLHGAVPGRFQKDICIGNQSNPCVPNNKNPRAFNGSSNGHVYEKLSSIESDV
# NR1A/NR2A NMDA receptor, sequence (Q00959 20-1464 limits assumed, other chains not shown): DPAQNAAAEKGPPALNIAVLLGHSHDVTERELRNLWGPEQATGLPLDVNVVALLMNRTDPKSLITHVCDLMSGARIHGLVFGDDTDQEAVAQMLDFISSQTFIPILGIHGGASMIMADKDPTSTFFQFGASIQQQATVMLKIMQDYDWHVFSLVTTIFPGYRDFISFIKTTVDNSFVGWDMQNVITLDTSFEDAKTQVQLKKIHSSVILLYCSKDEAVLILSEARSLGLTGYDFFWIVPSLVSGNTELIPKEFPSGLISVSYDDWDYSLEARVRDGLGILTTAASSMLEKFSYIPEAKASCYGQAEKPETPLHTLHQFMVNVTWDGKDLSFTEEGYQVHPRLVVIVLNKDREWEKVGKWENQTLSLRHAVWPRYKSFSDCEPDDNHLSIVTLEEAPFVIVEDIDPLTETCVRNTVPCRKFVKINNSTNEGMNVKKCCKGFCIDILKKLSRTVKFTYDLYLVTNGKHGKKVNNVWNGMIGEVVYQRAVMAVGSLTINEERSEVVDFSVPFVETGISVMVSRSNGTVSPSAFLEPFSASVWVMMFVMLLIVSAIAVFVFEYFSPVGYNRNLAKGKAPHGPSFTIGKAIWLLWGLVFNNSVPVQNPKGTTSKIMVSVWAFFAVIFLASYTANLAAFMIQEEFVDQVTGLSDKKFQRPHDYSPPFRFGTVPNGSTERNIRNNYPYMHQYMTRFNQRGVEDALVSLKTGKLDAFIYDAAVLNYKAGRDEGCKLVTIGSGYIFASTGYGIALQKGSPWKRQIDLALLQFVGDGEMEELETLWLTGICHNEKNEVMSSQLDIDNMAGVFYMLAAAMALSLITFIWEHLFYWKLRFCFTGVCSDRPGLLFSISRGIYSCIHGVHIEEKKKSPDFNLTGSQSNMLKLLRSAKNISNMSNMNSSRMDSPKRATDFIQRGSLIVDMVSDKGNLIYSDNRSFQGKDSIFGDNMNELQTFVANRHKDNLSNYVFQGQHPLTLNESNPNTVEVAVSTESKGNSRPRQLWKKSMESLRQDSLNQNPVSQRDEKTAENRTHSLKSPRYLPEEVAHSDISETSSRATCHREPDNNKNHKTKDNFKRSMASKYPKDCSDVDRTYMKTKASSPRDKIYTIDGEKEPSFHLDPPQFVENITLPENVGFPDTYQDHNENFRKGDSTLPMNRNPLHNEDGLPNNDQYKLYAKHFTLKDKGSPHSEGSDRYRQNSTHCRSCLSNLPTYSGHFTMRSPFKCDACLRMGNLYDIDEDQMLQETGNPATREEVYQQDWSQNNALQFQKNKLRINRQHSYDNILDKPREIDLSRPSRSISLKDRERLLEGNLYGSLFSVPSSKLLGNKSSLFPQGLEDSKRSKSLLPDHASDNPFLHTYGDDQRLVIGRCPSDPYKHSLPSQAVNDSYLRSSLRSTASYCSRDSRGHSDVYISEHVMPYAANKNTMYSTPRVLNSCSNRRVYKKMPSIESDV
# NR1A/NR2D NMDA receptor, sequence (Q62645 28-1323, other chains not shown): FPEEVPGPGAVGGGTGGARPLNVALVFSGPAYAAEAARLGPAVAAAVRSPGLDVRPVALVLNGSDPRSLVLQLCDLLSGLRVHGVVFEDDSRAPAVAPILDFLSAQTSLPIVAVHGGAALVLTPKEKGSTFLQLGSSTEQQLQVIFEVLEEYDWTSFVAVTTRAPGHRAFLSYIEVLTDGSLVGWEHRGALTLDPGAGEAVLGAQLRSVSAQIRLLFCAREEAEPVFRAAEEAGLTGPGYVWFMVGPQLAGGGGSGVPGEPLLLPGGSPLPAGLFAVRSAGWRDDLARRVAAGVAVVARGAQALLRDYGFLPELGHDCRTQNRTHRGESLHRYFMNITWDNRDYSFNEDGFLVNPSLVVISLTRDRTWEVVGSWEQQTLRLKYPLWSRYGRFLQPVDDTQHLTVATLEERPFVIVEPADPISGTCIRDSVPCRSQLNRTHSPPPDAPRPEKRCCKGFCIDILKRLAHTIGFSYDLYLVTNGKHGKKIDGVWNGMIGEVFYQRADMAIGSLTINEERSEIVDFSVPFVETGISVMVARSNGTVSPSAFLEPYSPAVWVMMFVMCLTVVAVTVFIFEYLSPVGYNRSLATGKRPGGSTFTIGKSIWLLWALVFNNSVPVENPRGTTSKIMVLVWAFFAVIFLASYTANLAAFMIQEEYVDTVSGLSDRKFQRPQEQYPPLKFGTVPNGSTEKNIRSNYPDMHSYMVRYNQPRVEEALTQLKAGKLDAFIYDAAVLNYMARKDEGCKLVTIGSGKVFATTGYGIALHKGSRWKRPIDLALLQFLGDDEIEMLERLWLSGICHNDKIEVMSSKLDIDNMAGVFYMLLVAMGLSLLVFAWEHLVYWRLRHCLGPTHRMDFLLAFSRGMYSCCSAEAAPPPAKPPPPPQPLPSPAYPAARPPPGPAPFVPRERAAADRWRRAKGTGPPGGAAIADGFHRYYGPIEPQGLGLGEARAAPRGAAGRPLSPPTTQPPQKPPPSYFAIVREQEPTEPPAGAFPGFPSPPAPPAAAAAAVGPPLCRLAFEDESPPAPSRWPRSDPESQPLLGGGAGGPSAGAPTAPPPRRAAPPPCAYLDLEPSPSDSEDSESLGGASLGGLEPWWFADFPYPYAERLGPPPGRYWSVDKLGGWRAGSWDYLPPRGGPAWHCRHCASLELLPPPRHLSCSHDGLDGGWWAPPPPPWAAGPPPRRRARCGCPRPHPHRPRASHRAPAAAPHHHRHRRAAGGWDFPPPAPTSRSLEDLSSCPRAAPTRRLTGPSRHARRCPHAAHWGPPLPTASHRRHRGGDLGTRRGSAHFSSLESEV
Structure (SMILES),ED50 [1] [mg/kg],activity against maximal electroshock (MES) [1],also measured
"Nc1cccc(C#CCCN2CCC(O)(c3ccc(Cl)cc3)CC2)c1 [Ex. 8, 1-[4-(3-Aminophenyl)-3-butynyl]-4-hydroxy-4-(4-chlorophenyl)piperidine]",10,potent activity,
"Nc1cccc(C#CCCN2CC=C(c3ccccc3)CC2)c1 [Ex. 14, 1-[4-(5-Aminophenyl)-3-butynyl]-4-phenyl-1,2,5,6-tetrahydropyridine]",,,"IC50 (NR1A/NR2D NMDA receptor): > 100 µM; IC50 (NR1A/NR2B NMDA receptor; read-out: Subunits (IC50 (μM)) 1A/2B, mean IC50, inhibition of NMDA-activated membrane current responses, glutamate 100 μM + glycine): 30 µM; IC50 (NR1A/NR2A NMDA receptor; read-out: Subunits (IC50 (μM)) 1A/2A, mean IC50, inhibition of NMDA-activated membrane current responses, glutamate 100 μM + glycine): 40 µM; IC50 (NR1A/NR2C NMDA receptor): > 100 µM"
"C(#Cc1ccccc1)CCN1CCC(Cc2ccccc2)CC1 [Ex. 18, 4-Benzyl-1-(4-phenyl-3-butynyl)piperidine]",3.5,potent activity,
"CCCCNC(=N)Nc1cccc(C#CCCN2CCC(O)(c3ccc(Cl)cc3)CC2)c1 [Ex. 28, N-n-Butyl-N′-(3-(4-(4-(4-chlorophenyl)-4-hydroxy)piperidinyl)butynyl)phenylguanidine]",10,potent activity,melting point: 98 to 100 °C
"Nc1ccc(C#CCCN2CCC(Cc3ccccc3)CC2)cc1 [Ex. 30, 1-(4-(4-Aminophenyl)-3-butynyl)-4-benzylpiperidine]",1.8,potent activity,
"Cc1ccc(CC2CCN(CCC#Cc3ccc(N)cc3)CC2)cc1 [Ex. 39, 4-{4-[4-(4-Methyl-benzyl)-piperidin-1-yl]-but-1-ynyl}-phenylamine]",2.5,potent activity,
"O=[N+]([O-])c1ccc(C#CCCN2CCC(Cc3ccccc3)CC2)cc1 [Ex. 40, 4-Benzyl-1-[4-(4-nitro-phenyl)-but-3-ynyl]-piperidine]",,,IC50 (NR1A/NR2B NMDA receptor; [2]): 5 µM
"Oc1ccc(C#CCCN2CCC(Cc3ccccc3)CC2)cc1 [Ex. 42, 4-[4-(4-Benzyl-piperidin-1-yl)-but-1-ynyl]-phenol]",2.5,potent activity,
"NCc1cccc(C#CCCN2CCC(Cc3ccccc3)CC2)c1 [Ex. 52, 3-[4-(4-Benzyl-piperidin-1-yl)-but-1-ynyl]-benzylamine]",,,"IC50 (NR1A/NR2A NMDA receptor; mean IC50, inhibition of NMDA-activated membrane current responses, glutamate 100 μM + glycine, read-out: Subunits (IC50 (μM)) 1A/2A): 15 µM"
"CC(=O)Nc1ccc(C#CCCN2CCC(Cc3ccccc3)CC2)cc1 [Ex. 53, N-{4-[4-(4-Benzyl-piperidin-1-yl)-but-1-ynyl]-phenyl}-acetamide]",8,potent activity,
"CNc1ccc(C#CCCN2CCC(Cc3ccccc3)CC2)cc1 [Ex. 54, {4-[4-(4-Benzyl-piperidin-1-yl)-but-1-ynyl]-phenyl}-methyl-amine]",6.5,potent activity,
"NS(=O)(=O)c1ccc(C#CCCN2CCC(Cc3ccccc3)CC2)cc1 [Ex. 59, 4-[4-(4-Benzyl-piperidin-1-yl)-but-1-ynyl]-benzenesulfonamide]",> 5,,
"Nc1ccc(C#CCN2CCC(Cc3ccccc3)CC2)cc1 [Ex. 63, 4-[3-(4-Benzyl-piperidin-1-yl)-prop-1-ynyl]-phenylamine]",,,IC50 (NR1A/NR2B NMDA receptor; [2]): 12 µM
"Cc1ccc(CC2CCN(CCC#Cc3ccc(O)cc3)CC2)cc1 [Ex. 67, 4-{4-[4-(4-Methyl-benzyl)-piperidin-1-yl]-but-1-ynyl}-phenol]",6,potent activity,
"Cc1ccc(CC2(O)CCN(CCC#Cc3ccc(N)cc3)CC2)cc1 [Ex. 77, 1-(1-(4-Aminophenyl)-1-butyn-4-yl)-4-hydroxy-4-(4-methylbenzyl)piperidine]",0.4,,
